Source: article PMC9021288 (Nature Communications, 2022)

Key:
[1] = system: P. falciparum Dd2-B2 and NF54-HGL; assay: In vitro selection of drug-resistant parasites; format: cell-based, Plasmodium falciparum
Experimental: Drug media was changed daily until cultures were cleared and every other day subsequently. […] Recrudescence was monitored by flow cytometry on an Accuri C6 (BD Biosciences) using BD C6 Plus for 60 days using SYBR Green and MitoTracker Deep Red FM (Life Technologies) as nuclear stain and vital dye, respectively, and data were analyzed using FlowJo (Supplementary Fig. 23). […] Whole-genome sequencing was performed to test for single nucleotide polymorphisms (SNPs) or copy number variations.

[2] = system: rat primary hepatocytes; assay: Hepatocyte stability, rat; format: in vitro ADME
[3] = molecular target: T1, human recombinant CYP1A2 (Homo sapiens, UniProt P05177); assay: CYP reaction phenotyping; format: in vitro ADME
T1 construct: purchased Bactosomes (assay run at Cyprotex)
T1 sequence (P05177 1-516): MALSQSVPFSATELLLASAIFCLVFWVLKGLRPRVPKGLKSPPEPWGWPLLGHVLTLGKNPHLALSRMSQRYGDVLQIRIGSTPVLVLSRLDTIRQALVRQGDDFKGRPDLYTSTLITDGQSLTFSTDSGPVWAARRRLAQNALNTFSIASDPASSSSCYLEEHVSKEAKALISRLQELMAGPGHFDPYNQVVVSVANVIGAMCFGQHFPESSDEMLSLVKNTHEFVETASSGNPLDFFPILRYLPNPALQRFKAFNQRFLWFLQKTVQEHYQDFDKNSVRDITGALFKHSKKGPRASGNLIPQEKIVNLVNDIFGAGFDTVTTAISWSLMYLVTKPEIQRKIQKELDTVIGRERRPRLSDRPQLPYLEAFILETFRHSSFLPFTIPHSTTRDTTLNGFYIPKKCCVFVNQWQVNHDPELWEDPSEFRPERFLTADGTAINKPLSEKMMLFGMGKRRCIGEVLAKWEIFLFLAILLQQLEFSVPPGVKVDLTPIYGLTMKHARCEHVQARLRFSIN
Experimental: (§1) In vitro CYP reaction phenotyping was performed at Cyprotex (Alderly Park, United Kingdom). […] The remaining test compound at each time point was analyzed by LC-MS/MS.

[4] = molecular target: T2, human recombinant CYP2B6 (Homo sapiens, UniProt P20813); assay: CYP reaction phenotyping; format: in vitro ADME
T2 construct: purchased Bactosomes (assay run at Cyprotex)
T2 sequence (P20813 1-491): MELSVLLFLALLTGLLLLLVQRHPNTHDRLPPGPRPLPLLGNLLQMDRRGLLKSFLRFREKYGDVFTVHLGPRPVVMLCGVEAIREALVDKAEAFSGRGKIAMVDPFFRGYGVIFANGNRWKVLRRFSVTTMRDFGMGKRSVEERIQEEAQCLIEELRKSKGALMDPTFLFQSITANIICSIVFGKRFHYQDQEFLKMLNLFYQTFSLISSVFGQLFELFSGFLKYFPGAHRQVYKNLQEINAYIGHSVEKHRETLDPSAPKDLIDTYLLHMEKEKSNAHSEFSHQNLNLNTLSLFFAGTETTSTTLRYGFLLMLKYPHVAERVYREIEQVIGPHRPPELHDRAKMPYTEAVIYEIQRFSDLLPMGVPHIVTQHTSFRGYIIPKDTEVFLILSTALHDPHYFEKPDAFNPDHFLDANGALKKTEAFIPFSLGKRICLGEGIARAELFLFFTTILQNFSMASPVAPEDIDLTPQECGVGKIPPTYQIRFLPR
Experimental: as §1

[5] = molecular target: T3, human recombinant CYP2C19 (Homo sapiens, UniProt P33261); assay: CYP reaction phenotyping; format: in vitro ADME; conditions: for Compound remaining (0 min = 100): CYP2C19
T3 construct: purchased Bactosomes (assay run at Cyprotex)
Experimental: as §1

[6] = molecular target: T4, human recombinant CYP2C8 (Homo sapiens, UniProt P10632); assay: CYP reaction phenotyping; format: in vitro ADME
T4 construct: purchased Bactosomes (assay run at Cyprotex)
T4 sequence (P10632 1-490): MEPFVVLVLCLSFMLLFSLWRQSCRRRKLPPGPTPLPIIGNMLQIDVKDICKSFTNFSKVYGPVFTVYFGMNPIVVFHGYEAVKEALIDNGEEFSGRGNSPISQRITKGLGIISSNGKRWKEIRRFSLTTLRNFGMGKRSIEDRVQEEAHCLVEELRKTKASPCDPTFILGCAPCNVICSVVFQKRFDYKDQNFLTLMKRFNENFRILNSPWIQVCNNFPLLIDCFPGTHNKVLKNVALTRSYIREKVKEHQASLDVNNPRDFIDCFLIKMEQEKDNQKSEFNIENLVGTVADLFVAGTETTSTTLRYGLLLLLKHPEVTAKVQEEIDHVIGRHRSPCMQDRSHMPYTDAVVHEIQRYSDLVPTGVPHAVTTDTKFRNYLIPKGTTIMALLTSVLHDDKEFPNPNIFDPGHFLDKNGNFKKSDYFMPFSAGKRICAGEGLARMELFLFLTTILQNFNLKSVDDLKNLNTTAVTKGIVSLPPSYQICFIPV
Experimental: as §1

[7] = molecular target: T5, human recombinant CYP2D6 (Homo sapiens, UniProt P10635); assay: CYP reaction phenotyping; format: in vitro ADME
T5 construct: purchased Bactosomes (assay run at Cyprotex)
Experimental: as §1

[8] = molecular target: T6, human recombinant CYP3A4 (Homo sapiens, UniProt P08684); assay: CYP reaction phenotyping; format: in vitro ADME; conditions: for Compound remaining (0 min = 100): CYP3A4
T6 construct: purchased Bactosomes (assay run at Cyprotex)
Experimental: as §1

T3 sequence (P33261 whole entry): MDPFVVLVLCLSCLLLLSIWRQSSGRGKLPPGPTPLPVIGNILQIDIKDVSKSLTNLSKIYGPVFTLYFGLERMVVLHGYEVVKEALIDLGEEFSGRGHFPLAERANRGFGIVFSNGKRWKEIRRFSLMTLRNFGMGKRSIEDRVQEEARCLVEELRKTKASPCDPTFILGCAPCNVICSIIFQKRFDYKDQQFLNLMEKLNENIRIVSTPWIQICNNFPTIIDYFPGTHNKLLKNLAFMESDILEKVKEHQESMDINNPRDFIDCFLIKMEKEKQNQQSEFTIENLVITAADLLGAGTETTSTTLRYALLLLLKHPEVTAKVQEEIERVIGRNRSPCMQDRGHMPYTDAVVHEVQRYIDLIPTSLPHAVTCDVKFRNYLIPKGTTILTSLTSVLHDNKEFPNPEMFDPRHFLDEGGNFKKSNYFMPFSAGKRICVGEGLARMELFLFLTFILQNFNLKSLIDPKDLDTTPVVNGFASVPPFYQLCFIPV
T5 sequence (P10635 whole entry): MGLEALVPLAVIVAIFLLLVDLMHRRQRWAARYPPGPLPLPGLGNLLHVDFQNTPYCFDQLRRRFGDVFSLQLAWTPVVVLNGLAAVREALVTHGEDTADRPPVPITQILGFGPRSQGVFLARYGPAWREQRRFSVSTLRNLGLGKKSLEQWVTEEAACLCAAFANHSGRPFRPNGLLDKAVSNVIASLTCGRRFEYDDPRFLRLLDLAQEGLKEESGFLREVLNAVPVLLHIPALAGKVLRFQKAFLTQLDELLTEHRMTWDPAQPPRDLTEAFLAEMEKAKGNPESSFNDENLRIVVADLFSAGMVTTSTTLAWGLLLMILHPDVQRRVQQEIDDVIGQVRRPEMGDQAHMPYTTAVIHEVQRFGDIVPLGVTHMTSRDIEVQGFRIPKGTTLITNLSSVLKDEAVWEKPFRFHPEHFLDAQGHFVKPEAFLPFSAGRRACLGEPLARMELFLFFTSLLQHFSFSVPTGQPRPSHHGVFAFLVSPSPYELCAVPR
T6 sequence (P08684 whole entry): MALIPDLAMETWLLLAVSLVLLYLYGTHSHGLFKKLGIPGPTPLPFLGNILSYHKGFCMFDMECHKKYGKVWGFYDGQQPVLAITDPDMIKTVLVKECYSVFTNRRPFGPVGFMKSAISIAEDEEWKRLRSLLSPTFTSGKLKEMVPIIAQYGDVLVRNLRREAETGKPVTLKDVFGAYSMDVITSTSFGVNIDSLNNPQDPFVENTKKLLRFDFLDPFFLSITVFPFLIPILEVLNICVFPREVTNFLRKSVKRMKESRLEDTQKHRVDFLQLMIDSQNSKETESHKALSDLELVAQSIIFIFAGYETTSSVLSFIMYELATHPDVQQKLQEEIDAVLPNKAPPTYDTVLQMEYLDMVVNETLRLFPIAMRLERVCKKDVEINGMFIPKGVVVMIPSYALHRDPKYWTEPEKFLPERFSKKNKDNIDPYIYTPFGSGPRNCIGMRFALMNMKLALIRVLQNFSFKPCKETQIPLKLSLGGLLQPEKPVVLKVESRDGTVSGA

For `C[C@@H](CNC(=O)[C@H](O)C(C)(C)CO)NC(=O)c1cc(F)c(F)cc1F` [MMV693183], the “minimum inoculum for resistance development” value [1] was 10^9, the “Frequency (# of parasite positive flasks or wells)” value (“Frequency” below) ([1]; 1x10^5 Dd2-B2, 15 nM) was 0/24 and the “Frequency” value ([1]; 1x10^7 Dd2-B2, 15-22 nM / 10.5-14 nM) was 0/3. For the same compound, the “Frequency” value ([1]; 1x10^8 Dd2-B2, 10.5-14 nM) was 0/3, the “Frequency” value ([1]; 1x10^9 Dd2-B2, 12-27 nM) was 3/3 and the “Frequency” value ([1]; NF54, 7 nM) was 2/2. The “Compound Remaining (% of 0 min)” value ([2]; 0 min) was 100%, the “Compound Remaining (% of 0 min)” value ([2]; 5 min) was 96.2% and the “Compound Remaining (% of 0 min)” value ([2]; 10 min) was 97.1%. The “Compound Remaining (% of 0 min)” value ([2]; 20 min) was 97.8%, the “Compound Remaining (% of 0 min)” value ([2]; 40 min) was 92.7% and the “Compound Remaining (% of 0 min)” value ([2]; 60 min) was 89.2%. The “Compound remaining (0 min = 100)” value ([3]; Incubation time (minutes) 0) was 100, the “Compound remaining (0 min = 100)” value ([3]; Incubation time (minutes) 5) was 98.3 and the “Compound remaining (0 min = 100)” value ([3]; Incubation time (minutes) 15) was 100. The “Compound remaining (0 min = 100)” value ([3]; Incubation time (minutes) 30) was 98.6, the “Compound remaining (0 min = 100)” value ([3]; Incubation time (minutes) 45) was 102 and the “Compound remaining (0 min = 100)” value ([4]; Incubation time (minutes) 0) was 100. The “Compound remaining (0 min = 100)” value ([4]; Incubation time (minutes) 5) was 101, the “Compound remaining (0 min = 100)” value ([4]; Incubation time (minutes) 15) was 104 and the “Compound remaining (0 min = 100)” value ([4]; Incubation time (minutes) 30) was 97.8. The “Compound remaining (0 min = 100)” value ([4]; Incubation time (minutes) 45) was 97.9, the “role in oxidative metabolism” value ([5]; 1 µM, 45 min, to a lower extent) was “responsible for the oxidative metabolism” and the “Compound remaining (0 min = 100)” value ([5]; Incubation time (minutes) 0) was 100. For the same compound, the “Compound remaining (0 min = 100)” value ([5]; Incubation time (minutes) 5) was 98.6, the “Compound remaining (0 min = 100)” value ([5]; Incubation time (minutes) 15) was 92.4 and the “Compound remaining (0 min = 100)” value ([5]; Incubation time (minutes) 30) was 93.6. The “Compound remaining (0 min = 100)” value ([5]; Incubation time (minutes) 45) was 95.9, the “Compound remaining (0 min = 100)” value ([6]; Incubation time (minutes) 0) was 100 and the “Compound remaining (0 min = 100)” value ([6]; Incubation time (minutes) 5) was 99.9. The “Compound remaining (0 min = 100)” value ([6]; Incubation time (minutes) 15) was 100, the “Compound remaining (0 min = 100)” value ([6]; Incubation time (minutes) 30) was 101 and the “Compound remaining (0 min = 100)” value ([6]; Incubation time (minutes) 45) was 101. For the same compound, the “Compound remaining (0 min = 100)” value ([7]; Incubation time (minutes) 0) was 100, the “Compound remaining (0 min = 100)” value ([7]; Incubation time (minutes) 5) was 105 and the “Compound remaining (0 min = 100)” value ([7]; Incubation time (minutes) 15) was 101. For the same compound, the “Compound remaining (0 min = 100)” value ([7]; Incubation time (minutes) 30) was 105, the “Compound remaining (0 min = 100)” value ([7]; Incubation time (minutes) 45) was 106 and the “role in oxidative metabolism” value ([8]; 1 µM, 45 min) was “responsible for the oxidative metabolism”. For the same compound, the “Compound remaining (0 min = 100)” value ([8]; Incubation time (minutes) 0) was 100, the “Compound remaining (0 min = 100)” value ([8]; Incubation time (minutes) 5) was 101 and the “Compound remaining (0 min = 100)” value ([8]; Incubation time (minutes) 15) was 94.1. For the same compound, the “Compound remaining (0 min = 100)” value ([8]; Incubation time (minutes) 30) was 90.1 and the “Compound remaining (0 min = 100)” value ([8]; Incubation time (minutes) 45) was 91.5.
